Experimental data reported in US20130178479A1, “PHARMACEUTICAL COMBINATIONS” (NOVARTIS AG, priority 2010, published 2013).
Where two headings read alike, the source gives them in different places. Each block holds one molecule with its values, some of them ahead of it.

Assays:
[1] = system: KMS-11 human Multiple Myeloma cancer cells; test: Cell proliferation assay (CellTiter-Glo) in KMS-11; assay type: cell-based; conditions: for IC50: Homo sapiens
Method: (§1) Celt Proliferation Assay: Cell viability was determined by measuring cellular ATP content using the CellTiter-Glo® Luminescent Cell Viability Assay (Promega #G7573) according to manufacturer's protocol. Briefly, 1500-50000 cells were plated on either 384 or 96 well plates in 30 μl (384 well) or 100 μl (96 well) growth media, cells were: allowed to attach overnight and followed by 72 hrs of incubation with various concentration of drugs or drug combinations (10 μl per well in 384 well plates), at the end of the drug treatment, 30 μl of the CellTiter-Glo regent were added to each well (384 well plates) to lyse the cell, and luminescence signals were recorded on a Envision plate reader.
(§2) Method for calculating the effect of the Combination: To evaluate the everolimus and Compound A combination effect in a non-bias way and to identify synergistic effect at all possible concentrations, the combination studies were conducted with a “dose matrix”, where a combination is tested in all possible permutations of serially-diluted everolimus and Compound A single agent doses, in all combination assays, compounds were applied simultaneously. Single agent dose responding curves, IC50, IC90, and the Synergy are all analyzed using Chalice software (CombinatoRx, Cambridge, Mass.). Synergy was calculated by comparing a combination's response to those of its single agents, against the drug-with-itself dose-additive reference model. Deviations from dose additivity can be assessed visually on an Isobologram or numerically With a Combination Index. Excess inhibition compare to additivity can also be plotted as a full dose-matrix chart to capture where the synergies occur. To quantify the overall strength of combination effects, a volume score VHSA=ΣXYInfXInfY(Idata−IHSA) is also calculated between the data and the highest-single-agent surface, normalized for single agent dilution factors fX,fY[ref].
The cells were plated, at 50000 cells/well in 96 well plates in triplicates, and treated with compound for 72 hrs prior to the measurement (FIG. 11). The following “dose matrix”, everolimus; 8 dose, 3×, 500 nM to 0.23 nM, Compound A: 8 dose, 2×, 1 μM to 8 nM, was applied.

PI3K/mTOR = conditions: cited from earlier work
[2] = system: NCI-H23 human non-small cell lung cancer cells; test: Cell proliferation assay (CellTiter-Glo) in NCI-H23; assay type: cell-based; conditions: for IC50: Homo sapiens
Method: as §1, §2
The experiment setup is identical to the p4EBP1 high content assay as used for the NCI-H23 cell model, (FIG. 5). And the same “doss matrix” (everolimus; 5 dose, 4×, 1.2 μM to 5 nM, Compound A: 9 dose, 2×, 1.2 μM to 5 nM) was applied.
Another experiment was conducted to evaluate the combination effect using cell titer glow (CTG) assay, this time, cells were plated in 384 well plates at 1000 cells/well in triplicates, and treated with compound for 72 hours before the measurement (FIG. 6). in this extended “dose matrix” study, everolimus was subjected to a 11 dose 4× serial dilution with the highest dose at 1 uM and the low dose at about 1 pM, and Compound A was subjected to a 9 dose 4× serial dilution with high dose at 1 μM and low dose at about 16 pM.

[3] = system: RPMI 8226 human Multiple Myeloma cancer cells; test: Cell proliferation assay (CellTiter-Glo) in RPMI 8226; assay type: cell-based; conditions: for IC50: Homo sapiens
Method: as §1, §2
The cells were plated at 50000 cells/well in 96 well plates in triplicates, and treated with compound for 72 hrs prior to the measurement (FIG. 12). The following “dose matrix”, everolimus: 8 dose, 3×, 500 nM to 0.23 nM, Compound A: 8 dose, 2×, 1 μM to 8 nM, was applied.

[4] = system: six cell lines from various tissue lineages; test: Antiproliferative effect of combinations, summary over six cell lines; assay type: cell-based, human; conditions: depends on the cell types
Method: as §1
Method for calculating the effect of the Combination: To evaluate the everolimus and Compound A combination effect in a non-bias way and to identify synergistic effect at all possible concentrations, the combination studies were conducted with a “dose matrix”, where a combination is tested in all possible permutations of serially-diluted everolimus and Compound A single agent doses, in all combination assays, compounds were applied simultaneously. Single agent dose responding curves, IC50, IC90, and the Synergy are all analyzed using Chalice software (CombinatoRx, Cambridge, Mass.). […] Deviations from dose additivity can be assessed visually on an Isobologram or numerically With a Combination Index. […]

[5] = system: MFE296 human endometrial cancer cells; test: Cell proliferation assay (CellTiter-Glo) in MFE296; assay type: cell-based; conditions: for Amax: single agent
Method: as §1, §2
The experiment setup is identical to the p4EBP1 assay as described above for the MFE296 cancer cell model. (FIG. 8). And the same “dose matrix” (everolimus: 11 dose, 4', 500 nM to 0.5 pM, Compound A; 9 dose, 4×, 1 μM to 16 nM) was applied.

[6] = system: p4EBP1 T37/46 in NCI-H23 cells; test: High content p4EBP1 T37/46 assay in NCI-H23 cells; assay type: cell-based, human
Method: Automated imaging assay (or High-Content assay) for pS6 S240/244 and p4EBP1 T37/46: 2-4×10^3 cells were seeded in clear-bottom 384-well black plates (Greiner #781091) in 30 μl per well growth media 24 hours prior to treatment Compounds were added to the cell in 10 μl growth media and incubated overnight; the cells were then fixed by addition of 10 μl per well Mirsky's fixative (National Diagnostics #HS-102) for 1 hour, washed seven times with 30 μl/well TBS buffer using a BioTek plate washer, and blocked with 100 μl/well blocking buffer (TBS with 0.1% BSA and 0.1% Triton X-100). The anti-Ser 240/244 -RPS6 antibody (CST #4838, 1:150 dilution) or anti-Thr 37/46-p4EBP1 antibody (CST #2855, 1:150 dilution) were then incubated overnight at 4° C. After seven times wash with TBS, the cells were stained with Cy5-conjugated goat-anti-rabbit IgG 2nd antibody (Millipore #AP187S, 1:150 dilution) and DNA staining dye Neediest 33342 for 1.5 hours. The phospho-S6 and phospho-4EBP1 signals were-imaged using InCell 1000 Analyzer (BN_staining—10×protocol) at 10× magnification, 3 fields per well after seven times wash with TBS. For Hoechst 33342 signal; the excitation and emission wave lengths are 360 nm (D360—40× filter) and […] (HQ460—40M filter), respectively, and for Cy5, 620 nm (HQ620—60× filter) for both the excitation and emission wave lengths. Analysis of the images was done using the InCell Investigator software.
as §2
The cells were plated at 3000 cells per well in 384 well plates in quadruplicates, and treated with compound for 18 hrs before the measurement (FIGS. 1-2).

[7] = NCI-H23, 72 h, single agent, extended dose matrix, 72 hours (FIG. 6), read-out: IC50, inhibition of cell growth
[8] = single agent, dose matrix 1.2 μM to 5 nM (FIG. 5)
[9] = single agent, extended dose matrix, 72 hours (FIG. 6)
[10] = with 5 nM everolimus vs Compound A alone
[11] = single agent, RPMI 8226, 72 hrs

IC50 ([1]; concomitant everolimus, KMS-11, read-out: IC50 for Compound A, cell growth): 16 nM
IC50 ([1]; single agent, KMS-11, 72 hrs, read-out: IC50, inhibition of cell growth): ~80 nM
IC50 [2, 7]: 80 nM
IC50 ([2]; NCI-H23, in combination with 5 nM everolimus, read-out: IC50 for Compound A, cell growth): 10 nM
IC50 ([2]; NCI-H23, single agent, dose matrix 1.2 μM to 5 nM (FIG. 5), read-out: IC50, inhibition of cell growth): 78 nM
reduction on IC50 of Compound A, cell growth [2, 10]: 8 fold
IC50 ([3]; concomitant everolimus, RPMI 8226, read-out: IC50 for Compound A, cell growth): 16 nM
IC50 ([3]; single agent, RPMI 8226, 72 hrs, read-out: IC50, inhibition of cell growth): ~125 nM
IC50 ([5]; Homo sapiens, MFE-296, single agent, read-out: IC50, inhibition of cell growth): 78 nM
IC90 ([6]; Homo sapiens, in combination with 5 nM everolimus, NCI-H23, read-out: IC90 for Compound A, p4EBP1 signal): 5 nM
IC50 ([6]; Homo sapiens, single agent, NCI-H23, 18 hrs, read-out: IC50, reduction of p4EBP1 signal): 10 nM
IC90 ([6]; Homo sapiens, single agent, NCI-H23, 18 hrs, read-out: IC90, reduction of p4EBP1 signal): 80 nM
reduction of IC90 for Compound A, p4EBP1 signal [6, 10]: 16 fold
SMILES: Cn1c(=O)n(-c2ccc(C(C)(C)C#N)cc2)c2c3cc(-c4cnc5ccccc5c4)ccc3ncc21 [Compound A, 2-methyl-2-[4-(3-methyl-2-oxo-8-quinolin-3-yl-2,3-dihydro-imidazo[4,5-c]quinolin-1-yl)-phenyl]-propionitrile]
full effective dose amount of Compound A ([1]; Compound A alone, KMS-11): > 125 nM
Amax ([1]; single agent, KMS-11, 72 hrs): 0.7
full effective dose amount of Compound A ([1]; with trace amount (sub-nanomolar) of everolimus, KMS-11): 16 to 82 nM
concentration at which mTOR inhibition predominates (PI3K/mTOR; low concentration): less than 100 nmol/L
concentration at which dual PI3K/mTOR inhibition is observed (PI3K/mTOR; relatively higher concentrations): approximately 500 nmol/L
Amax, the maximum fraction of inhibition [2, 8]: 0.7
growth inhibition compare to DMSO control (at Amax) [2, 8]: 70%
Amax [2, 9]: 0.7
full effective dose amount of Compound A ([3]; Compound A alone, RPMI 8226): > 125 nM
Amax [3, 11]: 0.7
full effective dose amount of Compound A ([3]; with trace amount (sub-nanomolar) of everolimus, RPMI 8226): 16 to 62 nM
enhancement of the potency of Compound A by everolimus [4]: 5-100 fold
full effective dose of Compound A ([5]; Compound A alone): 250 nM
Amax [5]: 0.79
full effective dose of Compound A ([5]; with trace amount (picomolar) of everolimus): close to sub-nanomolar range
concentration at which p4EBP1 signal reduction plateaued (complete inhibition) ([6]; single agent, NCI-H23): ≥ 167 nM

IC50 [2, 7]: > 1000 nM
IC50, inhibition of cell growth [2, 8]: never achieved an IC50
SMILES: CO[C@H]1C[C@@H]2CC[C@@H](C)[C@@](O)(O2)C(=O)C(=O)N2CCCC[C@H]2C(=O)O[C@H]([C@H](C)C[C@@H]2CC[C@@H](OCCO)[C@H](OC)C2)CC(=O)[C@H](C)/C=C(\C)[C@@H](O)[C@@H](OC)C(=O)[C@H](C)C[C@H](C)/C=C/C=C/C=C/1C [everolimus, 40-O-(2-hydroxyethyl)-rapamycin, reference compound]
Amax ([1]; single agent, KMS-11, 72 hrs): 0.28
Amax, the maximum fraction of inhibition [2, 8]: 0.3
Amax [2, 9]: 0.3
Amax [3, 11]: 0.15
Amax [5]: 0.6
p4EBP1 signal reduction ([6]; single agent, all concentrations tested 5 nM-1.2 μM, NCI-H23): approximately 30%
